Like-named read-outs stand apart in the source and are kept apart here.
Experiments:
[1] = test system: shoots having emerged from ripe seeds of barley; settings: cited from earlier work
[2] = test system: immature embryos of maize (cultivar: H99)
[3] = test system: regenerated plants of maize (cultivar: A188); settings: 10 μM in LSZ regeneration medium, 3 weeks; FIG. 8
Procedure: The transformed callus was cut into a size of about 2 mm and plated on LSZ regeneration medium containing 10 μM CuSO4.5H2O or copper gluconate, and PPT. After incubation at 25° C. under illumination for 3 weeks, the leaf length of regenerated plants was measured.

[4] = test system: immature embryos of maize (cultivar: H99); settings: media containing 1-10 μM copper sulfate (1-100 μM tested); but slightly; cited from earlier work
[5] = test system: immature embryos of rice (cultivar: Yukihikari); settings: 0-50 μM in inoculum liquid media; co-culture one week; three experiments; FIG. 7
Procedure: An Agrobacterium tumefaciens super-binary vector designated LBA4404 (pSB134) cultured on AB medium containing 50 mg/l hygromycin and 50 mg/l spectinomycin for 3 to 4 days was scraped with a platinum loop and suspended at a concentration of about 10^9 cfu/ml in 1 ml of AA1 liquid medium containing 100 μM acetosyringone and 0-50 μM CuSO4.5H2O or copper gluconate. Into an Eppendorf tube containing aseptically collected immature embryos (cultivar: Yukihikari) was added 1 ml of the Agrobacterium suspension and the tube was agitated for 30 seconds in a vortex mixer and then allowed to stand at room temperature for 5 minutes. The immature embryos were seeded on nN6-As medium and incubated in darkness at 25° C. for one week.
The weight of co-cultured immature embryos was measured.

[6] = test system: immature embryos of maize (cultivar: A188)
Source text: Transformation efficiency can be calculated by e.g., counting the number of regenerated plants expressing the GUS gene as transformants among those obtained from inoculated immature embryos and dividing the total number by the number of inoculated immature embryos. Alternatively, it can also be calculated by counting the number of regenerated plants showing resistance against a selective pressure as transformants and dividing the total number by the number of inoculated immature embryos.
(§1) These calli were cultured on the same medium containing 10 mg/l PPT for 6 weeks under the same conditions. Grown PPT-resistant calli were seeded on LSZ regeneration medium (LSD 1.5 medium deprived of 2,4-D and supplemented with 5 mg/l zeatin) and incubated at 25° C. under illumination for 2-3 weeks. Leaf segments of regenerated plants were excised and assessed for the expression of the GUS gene by X-gluc.
After co-culture for 1 week, the calli grown from immature embryos (cultivar: A188) cultured on a selective medium containing PPT for 1 week were evaluated on a scale of four ratings from 0 (no callus formed) to 3 (the entire scutellum formed callus).

[7] = test system: calli obtained by culturing immature embryos of rice; settings: media containing copper sulfate; cited from earlier work
[8] = test system: immature embryos of maize (cultivar: A188); settings: co-culture 1 week on media containing copper sulfate, then 1 week on PPT selective medium; FIG. 3
Procedure: as §1
After co-culture for 1 week, the calli grown from immature embryos (cultivar: A188) cultured on a selective medium containing PPT for 1 week were evaluated on a scale of four ratings from 0 (no callus formed) to 3 (the entire scutellum formed callus). […] Further selection on a medium containing PPT and incubation of the resulting calli in a regeneration medium containing PPT gave PPT-resistant plants. Leaf segments of these plants were excised and assessed for the expression of the GUS gene.

[9] = test system: regenerated plants of rice (cultivar: Yukihikari); settings: 10 μM in N6R regeneration medium, 3 weeks; FIG. 9
Procedure: Immature embryos of rice (cultivar: Yukihikari) were inoculated with Agrobacterium tumefaciens LBA4404 (pSB134) and cultured on nN6CC medium (N6 salts, N6 vitamins, 0.5 g/l casamino acids, 0.5 g/l L-proline, 1 mg/l 2,4-D, 0.5 mg/l NAA, 0.1 mg/l 6BA, 20 g/l sucrose, 55 g/l sorbitol, 250 mg/l cefotaxime, 250 mg/l carbenicillin, 5 g/l Gelrite, pH 5.8) containing hygromycin to give a transformed callus. The transformed callus was cut into a size of about 2 mm and seeded on N6R regeneration medium (N6 salts with major salts reduced to ½, N6 vitamins, AA amino acids, 1 g/l casamino acids, 0.5 mg/l kinetin, 20 g/l sucrose, 30 g/l sorbitol, 4 g/l Gelrite, pH 5.8) containing 10 μM CuSO4.5H2O or copper gluconate, and hygromycin. After incubation at 25° C. under illumination for 3 weeks, the leaf length of regenerated plants was measured.

anthers of wheat = settings: medium containing 10 mg/l copper sulfate and 2.5-5 mg/l silver nitrate; cited from earlier work
[10] = test system: calli obtained by culturing immature embryos of barley; settings: media containing copper sulfate; cited from earlier work
[11] = test system: immature embryos of rice (cultivar: IR64); settings: 5 μM copper sulfate in co-culture medium, 1 week; FIG. 4
Procedure: Into an Eppendorf tube containing aseptically collected immature embryos (cultivar: IR64) was added 1 ml of the Agrobacterium suspension and the tube was agitated for 30 seconds in a vortex mixer and then allowed to stand at room temperature for 5 minutes.

[12] = test system: immature embryos of maize (cultivar: A188); settings: 3 days
[13] = test system: immature embryos of maize (cultivar: A188); experiment: Callus formation of immature embryos after 7 days on co-culture media; format: cell-based; settings: 1 week, FIG. 6
[14] = 1 μM CuSO4 in co-culture medium, 13 inoculated immature embryos
[15] = 5 μM CuSO4 in co-culture medium, 13 inoculated immature embryos
[16] = 10 μM CuSO4 in co-culture medium, 14 inoculated immature embryos

Question: Which “brown tissue when shoot meristematic cultures are induced” value [1] does the source give for `OC[C@H]1O[C@H](O[C@H]2[C@H](O)[C@@H](O)C(O)O[C@@H]2CO)[C@H](O)[C@@H](O)[C@@H]1O` (mixture of isomers) [maltose, reference compound] here?
Answer: Its value is “effective for decreasing brown tissue”.

Question: Which “callus growth vs control medium” value ([2]; 5 μM silver nitrate in co-culture medium, 3 days, then about 4 weeks without selection, FIG. 2) does the source give for `O=[N+]([O-])[O-].[Ag+]` [silver nitrate, reference compound] here?
Answer: The value was “nearly comparable”.

Question: Which “leaf length of regenerated plants vs control regeneration medium” value (from here on “leaf length … vs control regeneration medium”) [3] does the source give for `O=S(=O)([O-])[O-].[Cu+2]` [copper sulfate] here?
Answer: The value was “significantly longer”.

Question: And the “callus formation from immature embryos” value [4]?
Answer: Its value is “improved”.

Question: What about the “growth (weight) of co-cultured immature embryos vs control medium” value [5] of the same compound?
Answer: The value was “more active growth”.

Question: What about the “Transformation efficiency (B/A, %)” value ([6]; 1 μM CuSO4 in co-culture medium) of the same compound?
Answer: Its value is 15.4%.

Question: And the “Number of GUS-positive plants (B)” value [6, 14]?
Answer: Its value is 2.

Question: What about the “Number of regenerated plants” value [6, 14] of the same compound?
Answer: Its value is 2.

Question: What about the “Transformation efficiency (B/A, %)” value ([6]; 5 μM CuSO4 in co-culture medium) of the same compound?
Answer: Its value is 46.2%.

Question: And the “Number of GUS-positive plants (B)” value [6, 15]?
Answer: Its value is 6.

Question: And the “Number of regenerated plants” value [6, 15]?
Answer: The value was 6.

Question: What about the “Transformation efficiency (B/A, %)” value ([6]; 10 μM CuSO4 in co-culture medium) of the same compound?
Answer: Its value is 35.7%.

Question: And the “Number of GUS-positive plants (B)” value [6, 16]?
Answer: The value was 5.

Question: And the “Number of regenerated plants” value [6, 16]?
Answer: The value was 6.

Question: And the “regeneration ratio or number of regenerated plants per callus” value [7]?
Answer: Its value is “increases”.

Question: And the “PPT-resistant callus formation vs control medium” value [8]?
Answer: The value was “higher callus formation”.

Question: What about the “leaf length … vs control regeneration medium” value [9] of the same compound?
Answer: The value was “significantly longer”.

Question: And the embryoid formation (anthers of wheat)?
Answer: Its embryoid formation is “increases”.

Question: And the “regeneration ratio or number of regenerated plants per callus” value [10]?
Answer: Its value is “increases”.

Question: What about the “average callus diameter greater than that on control co-culture medium” value [2] of the same compound?
Answer: The value was ≥ 2 mm.

Question: What about the “shoot growth when shoot meristematic cultures are induced” value [1] of the same compound?
Answer: Its value is “effective for promoting shoot growth”.

Question: And the “induction ratio of shoot meristematic cultures (SMCs)” value ([1]; medium containing 5 μM copper sulfate and 30 g/l maltose)?
Answer: The value was “increases”.

Question: What about the “area of the scutellum showing transient expression of the GUS gene vs control medium” value (“area … vs control medium” below) [11] of the same compound?
Answer: The value was “wider area”.

Question: What about the “area … vs control medium” value ([12]; 1, 5 and 10 μM copper sulfate in co-culture media, with or without heat/centrifugation pretreatment, FIG. 1) of the same compound?
Answer: The value was “wider area”.

Question: With copper gluconate as the compound, how does the “leaf length … vs control regeneration medium” value [3] read?
Answer: The value was “significantly longer”.

Question: And the “growth (weight) of co-cultured immature embryos vs control medium” value [5]?
Answer: Its value is “more active growth”.

Question: And the “leaf length … vs control regeneration medium” value [9]?
Answer: Its value is “significantly longer”.

Question: What about the “callus formation vs medium lacking copper gluconate” value ([13]; 1, 5 and 10 μM copper gluconate in co-culture media) of the same compound?
Answer: Its value is “higher callus formation”.

Question: What about the “callus formation vs control” value ([13]; 5 and 10 μM copper gluconate in co-culture media) of the same compound?
Answer: Its value is “significantly higher callus formation”.

Question: And the “area … vs control medium” value ([12]; 1, 5 and 10 μFM copper gluconate in co-culture media, heat/centrifugation pretreatment, FIG. 5)?
Answer: The value was “wider area”.

— patent US7709700B2, “Method for improving plant transformation efficiency by adding copper ion” (Japan Tobacco Inc., priority 2003, dated 2010)
